Test results from article PMC12203311, “Design, synthesis, in silico and in vitro evaluation of pyrrole–indole hybrids as dual tubulin and aromatase inhibitors with potent anticancer activities” (RSC Advances, 2025).

Experiments:
HL-60 (TB) = experiment: NCI60 five-dose screen; format: cell-based; settings: Homo sapiens, leukemia
NCI-H226 = experiment: NCI60 five-dose screen; format: cell-based; settings: Homo sapiens, NCI-H226, NSC lung cancer
MDA-MB-435 = experiment: NCI60 five-dose screen; format: cell-based, human; settings: Homo sapiens
M14 = experiment: NCI60 five-dose screen; format: cell-based; settings: Homo sapiens, M14, melanoma
NCI-H460 = experiment: NCI60 five-dose screen; format: cell-based; settings: Homo sapiens, NCI-H460, NSC lung cancer
UACC-257 = experiment: NCI60 five-dose screen; format: cell-based; settings: Homo sapiens, UACC-257, melanoma
CAKI-1 = experiment: NCI60 five-dose screen; format: cell-based; settings: Homo sapiens, CAKI-1, renal cancer
SK-MEL-2 = experiment: NCI60 five-dose screen; format: cell-based; settings: Homo sapiens, SK-MEL-2, melanoma
LOX IMVI = experiment: NCI60 five-dose screen; format: cell-based; settings: Homo sapiens, melanoma
DU-145 = experiment: NCI60 five-dose screen; format: cell-based; settings: Homo sapiens, DU-145, prostate cancer
OVCAR-3 = experiment: NCI60 five-dose screen; format: cell-based; settings: Homo sapiens, OVCAR-3, ovarian cancer
SF-295 = experiment: NCI60 five-dose screen; format: cell-based; settings: Homo sapiens, SF-295, CNS cancer
MDA-MB-468 = experiment: NCI60 five-dose screen; format: cell-based; settings: Homo sapiens, MDA-MB-468, breast cancer
PC-3 = experiment: NCI60 five-dose screen; format: cell-based; settings: Homo sapiens, PC-3, prostate cancer
NCI-H23 = experiment: NCI60 five-dose screen; format: cell-based; settings: Homo sapiens, NCI-H23, NSC lung cancer
[1] = test system: T47D breast cancer cell line; experiment: Cytotoxicity MTT assay, T47D; format: cell-based, human; settings: Homo sapiens, T47D; MTT, 48 hours
Procedure: T47D (ATCC HTB-133) was purchased from Biomedia (Thailand) Co., LTD. L929 (ATCC CCL-1) was received as a gift from Prof. Tanapat Palaga, Department of Microbiology, Faculty of Science, Chulalongkorn University, Bangkok, Thailand. The cells were cultured in Dulbecco's Modified Eagle's Medium (DMEM; Gibco) supplemented with 10% fetal bovine serum (FBS; HyClone), 100 U mL^−1 penicillin and 100 µg mL^−1 streptomycin (Gibco) at 37 °C with 5% CO2.
The antiproliferative activity was determined by MTT assay. Briefly, the cells were plated into a 96-well microplate at the density of 10 000 cells per well. The cells were allowed to grow overnight before treated with the solutions of compounds in culture medium at the designated concentrations for 48 hours. The medium was then replaced with MTT solution (0.5 mg mL^−1 MTT in culture medium) and incubated for 3 hours. A 100 µL of DMSO was used to dissolve the produced formazan. Absorbance at 570 nm was then measured using a microplate reader (Varioskan™ LUX multimode microplate reader, Thermo Scientific™). Percent viability was calculated relative to the vehicle control (DMSO).

IGROV1 = experiment: NCI60 five-dose screen; format: cell-based; settings: Homo sapiens, IGROV-1; IGROV1, ovarian cancer
MOLT-4 = experiment: NCI60 five-dose screen; format: cell-based; settings: Homo sapiens, MOLT-4, leukemia
HCT-116 = experiment: NCI60 five-dose screen; format: cell-based; settings: Homo sapiens, HCT-116, colon cancer
HT29 = experiment: NCI60 five-dose screen; format: cell-based; settings: Homo sapiens, HT-29, HT29, colon cancer
RPMI-8226 = experiment: NCI60 five-dose screen; format: cell-based; settings: Homo sapiens, RPMI-8226, leukemia
HCC-2998 = experiment: NCI60 five-dose screen; format: cell-based; settings: Homo sapiens, HCC-2998, colon cancer
HOP-92 = experiment: NCI60 five-dose screen; format: cell-based; settings: Homo sapiens, HOP-92, NSC lung cancer
HS 578T = experiment: NCI60 five-dose screen; format: cell-based; settings: Homo sapiens, breast cancer
BT-549 = experiment: NCI60 five-dose screen; format: cell-based; settings: Homo sapiens, BT-549, breast cancer
OVCAR-5 = experiment: NCI60 five-dose screen; format: cell-based; settings: Homo sapiens, OVCAR-5, ovarian cancer
HCT-15 = experiment: NCI60 five-dose screen; format: cell-based; settings: Homo sapiens, HCT-15, colon cancer
MDA-MB-231/ATCC = experiment: NCI60 five-dose screen; format: cell-based; settings: Homo sapiens, breast cancer
OVCAR-8 = experiment: NCI60 five-dose screen; format: cell-based; settings: Homo sapiens, OVCAR-8, ovarian cancer
HOP-62 = experiment: NCI60 five-dose screen; format: cell-based; settings: Homo sapiens, HOP-62, NSC lung cancer
[2] = read-out: LC50 (the source's name)

For `O=C(N/N=C/c1ccc(C(=O)N2CCOCC2)[nH]1)c1[nH]c2ccc(Br)cc2c1-c1ccccc1` [Derivative 3n, (E)-5-Bromo-N′-((5-(morpholine-4-carbonyl)-1H-pyrrol-2-yl)methylene)-3-phenyl-1H-indole-2-carbohydrazide], the GI50 (HL-60 (TB)) was 1.84 µM, the CC50 (HL-60 (TB); [2]) was 8.56 µM and the GI50 (NCI-H226) was 3.39 µM. It also gave a CC50 (NCI-H226; [2]) of 81.7 µM, a CC50 (MDA-MB-435; MDA-MB-435, MDA-MB-435, melanoma, read-out: LC50 (the source's name)) of 55.4 µM and a GI50 (MDA-MB-435; MDA-MB-435, melanoma) of 0.392 µM. For the same compound, the GI50 (M14) was 1.92 µM, the CC50 (M14; [2]) was 64.2 µM and the GI50 (NCI-H460) was 2.49 µM. It also gave a CC50 (NCI-H460; [2]) of 54.1 µM, a GI50 (UACC-257) of 11.9 µM and a CC50 (UACC-257; [2]) of 94.4 µM. For the same compound, the GI50 (CAKI-1) was 1.46 µM, the CC50 (CAKI-1; [2]) was > 100 µM and the GI50 (SK-MEL-2) was 2.8 µM. The CC50 (SK-MEL-2; [2]) was 48.3 µM, the GI50 (LOX IMVI) was 3.06 µM and the CC50 (LOX IMVI; [2]) was 71.2 µM. For the same compound, the GI50 (DU-145) was 3.72 µM, the CC50 (DU-145; [2]) was > 100 µM and the GI50 (OVCAR-3) was 2.57 µM. For the same compound, the CC50 (OVCAR-3; [2]) was 47.4 µM, the GI50 (SF-295) was 1.63 µM and the CC50 (SF-295; [2]) was 31 µM. The GI50 (MDA-MB-468) was 1.98 µM, the CC50 (MDA-MB-468; [2]) was 75.5 µM and the GI50 (PC-3) was 3.44 µM. The CC50 (PC-3; [2]) was > 100 µM, the GI50 (NCI-H23) was 2.83 µM and the CC50 (NCI-H23; [2]) was 69.8 µM. It also gave an IC50 [1] of 5.4 ± 4.8 µM, a GI50 (IGROV1) of 6.69 µM and a GI50 (MOLT-4) of 1.5 µM. It also gave a CC50 (MOLT-4; [2]) of 20.8 µM, a GI50 (HCT-116) of 2.79 µM and a CC50 (HCT-116; [2]) of 66.7 µM. For the same compound, the GI50 (HT29) was 2.57 µM, the CC50 (HT29; [2]) was 38.3 µM and the GI50 (RPMI-8226) was 4.5 µM. For the same compound, the CC50 (RPMI-8226; [2]) was > 100 µM, the GI50 (HCC-2998) was 2.31 µM and the CC50 (HCC-2998; [2]) was 42.9 µM. For the same compound, the GI50 (HOP-92) was 6.14 µM, the CC50 (HOP-92; [2]) was > 100 µM and the GI50 (HS 578T) was 1.04 µM. The CC50 (HS 578T; [2]) was > 100 µM, the GI50 (BT-549) was 2.36 µM and the CC50 (BT-549; [2]) was 55.2 µM. For the same compound, the GI50 (OVCAR-5) was 5.78 µM, the CC50 (OVCAR-5; [2]) was > 100 µM and the GI50 (HCT-15) was 2.62 µM. The CC50 (HCT-15; [2]) was > 100 µM, the GI50 (MDA-MB-231/ATCC) was 4.81 µM and the CC50 (MDA-MB-231/ATCC; [2]) was 83.2 µM. It also gave a GI50 (OVCAR-8) of 2.86 µM, a CC50 (OVCAR-8; [2]) of 43.1 µM and a GI50 (HOP-62) of 3.36 µM. It also gave a CC50 (HOP-62; [2]) of 69.2 µM.
